Laboratory results published in US20260098037A1, “COMPOUND CONTAINING MULTI-FUSED RING STRUCTURE” (Chia Tai Tianqing Pharmaceutical Group Co., Ltd., priority 2023, published 2026).
pEC50: −log10 of the molar value. Where two headings read alike, the source gives them in different places.

Assays:
GLP1R = GLP1R (Homo sapiens, UniProt P43220); assay: In vitro cellular cAMP expression activity assay (CRE-luciferase reporter); assay type: cell-based; settings: HEK293/CRE-Luc/GLP1R cells, 6 h incubation, luciferase luminescence; read-out: HEK293/CRE-Luc/GLP-1R EC50
Chain of GLP1R (P43220 24-463): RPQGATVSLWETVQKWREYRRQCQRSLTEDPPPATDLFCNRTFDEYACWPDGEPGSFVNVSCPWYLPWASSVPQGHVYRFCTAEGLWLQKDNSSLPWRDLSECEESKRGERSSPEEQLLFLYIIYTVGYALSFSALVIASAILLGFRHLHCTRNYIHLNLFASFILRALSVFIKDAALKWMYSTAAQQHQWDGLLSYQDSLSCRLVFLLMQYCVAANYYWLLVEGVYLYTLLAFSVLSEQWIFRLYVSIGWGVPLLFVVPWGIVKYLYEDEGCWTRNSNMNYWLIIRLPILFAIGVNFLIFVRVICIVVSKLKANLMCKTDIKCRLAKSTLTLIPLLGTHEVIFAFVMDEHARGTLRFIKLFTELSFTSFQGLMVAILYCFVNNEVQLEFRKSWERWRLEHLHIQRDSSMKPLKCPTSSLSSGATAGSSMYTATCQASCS
Procedure: HEK293/CRE-Luc/GLP1R cells (manufacturer: GenScript Biotech Corporation) in a good growth state were taken, washed with PBS, and digested with pancreatin. The digestion was terminated with a complete medium. The cells were collected into a centrifuge tube, adjusted to a cell density of 4×10^5 cells/mL using a DMEM+2% FBS medium, seeded in a 96-well plate (100 μL/well), and incubated at 37° C. for 1 h. After 1 h, the compounds were added using a nanoliter pipettor such that the final concentrations of the compounds were 10 nM-0.0006 nM. The compounds were added in duplicate, and a control was set. After the cells were incubated in a cell incubator for another 6 h, a detection reagent Luciferase (manufacturer: Vazyme Biotech, 50 μL/well) was added. The plate was left to stand at room temperature for 3 min to fully lyse the cells, and the luminescence was detected on a PerkinElmer Envision microplate reader. A dose-response curve was fitted by four-parameter analysis, and the EC50 was calculated.

[1] = In vitro stability assay in liver microsome (MLM); assay type: in vitro ADME, mouse; settings: liver microsome 0.5 mg/mL, NADPH+MgCl2, PBS pH 7.4, 1 h
Procedure: (§1) Liver microsome incubation samples were prepared by mixing a PBS buffer (pH 7.4), a liver microsome solution (0.5 mg/mL), a test compound, and an NADPH+MgCl2 solution, and incubated at […] and 300 rpm for 1 h. Zero-hour samples were prepared by mixing a PBS buffer (pH 7.4), a liver microsome solution (0.5 mg/mL), and a test compound. An acetonitrile solution containing an internal standard was added to the samples, and supernatants were prepared by protein precipitation, diluted, and then assayed by LC/MS/MS.

[2] = In vitro stability assay in liver microsome (HLM); assay type: in vitro ADME, human; settings: liver microsome 0.5 mg/mL, NADPH+MgCl2, PBS pH 7.4, 1 h
Procedure: as §1

[3] = In vivo pharmacokinetic evaluation in mice; settings: mouse, plasma, ICR mice; for bioavailability: ig 3 mg/kg vs iv 0.5 mg/kg, read-out: Absolute bioavailability F; for MRT last: read-out: MRT(0-24); for half-life: read-out: t½ (converted); for AUC(0-t): read-out: AUC(0-24)
Procedure: ICR mice of 18-22 g were randomized into 4 groups of 9 mice after 3-5 days of acclimatization. […]
The test animals (ICR mice) were fasted from 12 h pre-dose to 4 h post-dose, and given free access to water throughout the study.
Orbital blood samples of about 0.1 mL were collected at 15 min, 30 min, 1 h, 2 h, 3 h, 4 h, 6 h, 8 h, 10 h, and 24 h post-dose for the intragastric administration, and at 5 min, 10 min, 30 min, 1 h, 2 h, 4 h, 6 h, 8 h, 10 h, and 24 h post-dose for the intravenous administration. The blood sampling was performed at 3-4 time points for each mouse, 3 mice per time point. The collected whole blood was transferred into EDTA-K2-containing centrifuge tubes and stored at 4° C., and, within 1 h, centrifuged at 4° C. at 4000 rpm for 10 min to separate the plasma. All the plasma samples were immediately stored after collection at −20° C. for testing.
30 μL of the plasma sample to be tested and a standard curve sample were pipetted and added with 300 μL of an acetonitrile solution containing an internal standard (20 ng/mL of diazepam). The mixture was shaken to mix well for 5 min, and centrifuged at 13,000 rpm for 10 min. 80 μL of the supernatant was taken and diluted with 80 μL of ultrapure water. After a thorough mixing, 2 μL of the resulting sample was taken for liquid chromatography-mass spectrometry, and the chromatogram was recorded.

pEC50 (GLP1R) | MLM Remaining (T = 60 min) [1] [%] | HLM Remaining (T = 60 min) [2] [%] | SMILES | further results
> 9.30 |  |  | C[C@H]1c2c(nn(-c3ccc(F)c(C4CC4)c3)c2-n2ccn(-c3ccc4c(c3)C3(CC3)C(=O)N4C)c2=O)CCN1C(=O)c1cc2cc(C3CCOC(C)(C)C3)ccc2n1[C@@]1(c2nc(=O)o[nH]2)C[C@@H]1C (single isomer, unassigned) [Compound 6] | 
> 9.30 | 77.59 | 95.39 | C[C@H]1c2c(nn(-c3ccc(F)c(C4CC4)c3)c2-n2ccn(-c3ccc4c(c3)N(C)C(=O)C43CC3)c2=O)CCN1C(=O)c1cc2cc(C3CCOC(C)(C)C3)ccc2n1C1(c2noc(=O)[nH]2)CC1 (single isomer, unassigned) [Compound 20] | 
> 9.30 |  |  | Cc1cc(-n2nc3c(c2-n2ccn(-c4ccc5c(c4)C4(CCC4)C(=O)N5C)c2=O)[C@H](C)N(C(=O)c2cc4cc(C5CCOC(C)(C)C5)ccc4n2[C@@]2(c4nc(=O)o[nH]4)C[C@@H]2C)CC3)cc(C)c1F (single isomer, unassigned) [Compound 21] | 
> 9.30 |  |  | Cc1cc(-n2nc3c(c2-n2ccn(-c4ccc5c(c4)C4(CC4)C(=O)N5C)c2=O)C(C)N(C(=O)c2cc4cc(C5CCOC(C)(C)C5)ccn4c2C2(c4noc(=O)[nH]4)CC2C)CC3)cc(C)c1F (single isomer, unassigned) [Compound 22-A] | 
> 9.30 |  |  | Cc1cc(-n2nc3c(c2-n2ccn(-c4ccc5c(c4)C4(CC4)C(=O)N5C)c2=O)[C@H](C)N(C(=O)c2cc4cc([C@H]5CCOC(C)(C)C5)ccc4n2[C@@]2(c4noc(=O)[nH]4)C[C@@H]2C)CC3)cc(C)c1F [Compound 1-A] | 
> 9.30 | 88.89 | 88.76 | [2H]C([2H])([2H])N1C(=O)C2(CC2)c2cc(-n3ccn(-c4c5c(nn4-c4cc(C)c(F)c(C)c4)CCN(C(=O)c4cc6cc([C@H]7CCOC(C)(C)C7)ccc6n4[C@@]4(c6noc(=O)[nH]6)C[C@@H]4C)[C@H]5C)c3=O)ccc21 [Compound 2] | bioavailability ([3]; po): 43.9%; MRT last ([3]; po, ig, dose 3 mg/kg): 7.73 h; half-life ([3]; po, ig, dose 3 mg/kg): 3.53 h; MRT last ([3]; iv, dose 0.5 mg/kg): 5.13 h; half-life ([3]; iv, dose 0.5 mg/kg): 4.1 h; AUC(0-inf) ([3]; po, ig, dose 3 mg/kg): 4880 ng·h/mL; AUC(0-t) ([3]; po, ig, dose 3 mg/kg): 4790 ng·h/mL; AUC(0-inf) ([3]; iv, dose 0.5 mg/kg): 1850 ng·h/mL; AUC(0-t) ([3]; iv, dose 0.5 mg/kg): 1820 ng·h/mL
> 9.30 | 90.13 | 80.83 | Cc1cc(-n2nc3c(c2-n2ccn(-c4ccc5c(c4)C4(CC4)C(=O)N5C4CC4)c2=O)[C@H](C)N(C(=O)c2cc4cc([C@H]5CCOC(C)(C)C5)ccc4n2[C@@]2(c4noc(=O)[nH]4)C[C@@H]2C)CC3)cc(C)c1F [Compound 3] | bioavailability ([3]; po): 33.7%; MRT last ([3]; po, ig, dose 3 mg/kg): 8.42 h; half-life ([3]; po, ig, dose 3 mg/kg): 4.15 h; MRT last ([3]; iv, dose 0.5 mg/kg): 6.13 h; half-life ([3]; iv, dose 0.5 mg/kg): 5.73 h; AUC(0-inf) ([3]; po, ig, dose 3 mg/kg): 4960 ng·h/mL; AUC(0-t) ([3]; po, ig, dose 3 mg/kg): 4800 ng·h/mL; AUC(0-inf) ([3]; iv, dose 0.5 mg/kg): 2450 ng·h/mL; AUC(0-t) ([3]; iv, dose 0.5 mg/kg): 2360 ng·h/mL
> 9.30 | 95.46 | 91.85 | Cc1cc(-n2nc3c(c2-n2ccn(-c4ccc5c(c4)C4(CC4)C(=O)N5C)c2=O)[C@H](C)N(C(=O)c2cc4cc([C@H]5CCOC(C)(C)C5)ccc4n2C2(c4noc(=O)[nH]4)CC2)CC3)cc(C)c1F [Compound 4] | 
> 9.30 |  |  | Cc1cc(-n2nc3c(c2-n2ccn(-c4ccc5nc6n(c5c4)CCN(C)C6)c2=O)[C@H](C)N(C(=O)c2cc4cc([C@H]5CCOC(C)(C)C5)ccc4n2[C@@]2(c4noc(=O)[nH]4)C[C@@H]2C)CC3)cc(C)c1F [Compound 7] | 
> 9.30 |  |  | Cc1cc(-n2nc3c(c2-n2ccn(-c4ccc5nc6n(c5c4)CCC6)c2=O)[C@H](C)N(C(=O)c2cc4cc([C@H]5CCOC(C)(C)C5)ccc4n2[C@@]2(c4noc(=O)[nH]4)C[C@@H]2C)CC3)cc(C)c1F [Compound 8] | 
> 9.30 |  |  | Cc1cc(-n2nc3c(c2-n2ccn(-c4ccc5c(c4)C(=O)C4(CC4)C5)c2=O)[C@H](C)N(C(=O)c2cc4cc([C@H]5CCOC(C)(C)C5)ccc4n2[C@@]2(c4noc(=O)[nH]4)C[C@@H]2C)CC3)cc(C)c1F [Compound 9-A] | 
> 9.30 |  |  | COCC#Cc1ccc(-n2ccn(-c3c4c(nn3-c3cc(C)c(F)c(C)c3)CCN(C(=O)c3cc5cc([C@H]6CCOC(C)(C)C6)ccc5n3[C@@]3(c5noc(=O)[nH]5)C[C@@H]3C)[C@H]4C)c2=O)c(F)c1 [Compound 10-A] | 
> 9.30 |  |  | Cc1cc(-n2nc3c(c2-n2ccn(-c4ccc5c(c4)CC4(COC4)C5)c2=O)[C@H](C)N(C(=O)c2cc4cc([C@H]5CCOC(C)(C)C5)ccc4n2[C@@]2(c4noc(=O)[nH]4)C[C@@H]2C)CC3)cc(C)c1F [Compound 12-A] | 
> 9.30 | 84.44 | 84.57 | [2H]C([2H])([2H])N1C(=O)C2(CC2)c2ccc(-n3ccn(-c4c5c(nn4-c4cc(C)c(F)c(C)c4)CCN(C(=O)c4cc6cc([C@H]7CCOC(C)(C)C7)ccc6n4[C@@]4(c6noc(=O)[nH]6)C[C@@H]4C)[C@H]5C)c3=O)cc21 [Compound 13] | 
> 9.30 |  |  | Cc1cc(-n2nc3c(c2-n2ccn(-c4cc(F)c5c(c4)N(C)C(=O)C54CC4)c2=O)[C@H](C)N(C(=O)c2cc4cc([C@H]5CCOC(C)(C)C5)ccc4n2[C@@]2(c4noc(=O)[nH]4)C[C@@H]2C)CC3)cc(C)c1F [Compound 16] | 
> 9.30 |  |  | Cc1cc(-n2nc3c(c2-n2ccn(-c4ccc5c(c4)N(C4CC4)C(=O)C54CC4)c2=O)[C@H](C)N(C(=O)c2cc4cc([C@H]5CCOC(C)(C)C5)ccc4n2[C@@]2(c4noc(=O)[nH]4)C[C@@H]2C)CC3)cc(C)c1F [Compound 17] | 
> 9.30 | 91.41 | 89.14 | C[C@H]1c2c(nn(-c3ccc(F)c(C4CC4)c3)c2-n2ccn(-c3ccc4c(c3)N(C)C(=O)C43CC3)c2=O)CCN1C(=O)c1cc2cc([C@H]3CCOC(C)(C)C3)ccc2n1[C@@]1(c2noc(=O)[nH]2)C[C@@H]1C [Compound 18] | bioavailability ([3]; po): 33.5%; MRT last ([3]; po, ig, dose 3 mg/kg): 8.36 h; half-life ([3]; po, ig, dose 3 mg/kg): 4.29 h; MRT last ([3]; iv, dose 0.5 mg/kg): 5.48 h; half-life ([3]; iv, dose 0.5 mg/kg): 4.55 h; AUC(0-inf) ([3]; po, ig, dose 3 mg/kg): 6030 ng·h/mL; AUC(0-t) ([3]; po, ig, dose 3 mg/kg): 5840 ng·h/mL; AUC(0-inf) ([3]; iv, dose 0.5 mg/kg): 3000 ng·h/mL; AUC(0-t) ([3]; iv, dose 0.5 mg/kg): 2930 ng·h/mL
> 9.30 | 77.17 | 92.40 | Cc1cc(-n2nc3c(c2-n2ccn(-c4ccc5c(c4)N(C)C(=O)C54CC4)c2=O)[C@H](C)N(C(=O)c2cc4cc([C@H]5CCOC(C)(C)C5)ccc4n2C2(c4noc(=O)[nH]4)CC2)CC3)cc(C)c1F [Compound 19] | 
> 9.30 |  |  | C[C@H]1c2c(nn(-c3ccc(F)c(C4CC4)c3)c2-n2ccn(-c3ccc4c(c3)C3(CC3)C(=O)N4C)c2=O)CCN1C(=O)c1cc2cc([C@H]3CCOC(C)(C)C3)ccn2c1[C@@]1(c2noc(=O)[nH]2)C[C@@H]1C [Compound 24] | 
> 9.30 |  |  | C[C@H]1c2c(nn(-c3ccc(F)c(C4CC4)c3)c2-n2ccn(-c3ccc4c(c3)CC3(CC3)C4=O)c2=O)CCN1C(=O)c1cc2cc([C@H]3CCOC(C)(C)C3)ccc2n1[C@@]1(c2noc(=O)[nH]2)C[C@@H]1C [Compound 26] | 
